# Source: US4593093A, “Acyl derivatives” (priority 1980, dated 1986)
# Where a name gives a salt, the structure may show the parent alone. Read-outs that look alike come from different tables or passages of the source.
# How the values were obtained:
# [1] = test system: Citrobacter freundii; experiment: Activity in vitro: minimum inhibitory concentration; assay type: cell-based
# [2] = test system: Proteus rettgeri; experiment: as above; assay type: cell-based; details: Providencia rettgeri
# [3] = test system: Escherichia coli; experiment: Activity in vivo: survival of intraperitoneally infected mice; details: sc, 96 h; mice infected i.p. with Escherichia coli; s.c. twice, 1 h and 3 h after infection; survival on 4th day; read-out: CD50 (dosage at which 50% of the animals survive)
# Procedure: (§1) Groups of 5 mice are infected intraperitoneally with an aqueous suspension of various pathogens. The test substance in physiological sodium chloride solution is administered subcutaneously twice, i.e. 1 hour and 3 hours after the infection. The number of surviving animals is determined on the 4th day. Various dosages are administered and that dosage at which 50% of the experimental animals survive (CD50, mg/kg) is determined by interpolation.
# [4] = test system: Serratia marcescens; experiment: as above; details: sc, 96 h, 1 h and 3 h after infection, survival on 4th day, read-out: CD50 (dosage at which 50% of the animals survive)
# Procedure: as §1
# [5] = test system: Streptococcus pyogenes; experiment: as above; details: sc, 96 h; mice infected i.p. with Streptococcus pyogenes; s.c. twice, 1 h and 3 h after infection; survival on 4th day; read-out: CD50 (dosage at which 50% of the animals survive)
# Procedure: as §1
# [6] = test system: Enterobacter cloacae; experiment: as above; details: sc, 96 h; mice infected i.p. with Enterobacter cloacae; s.c. twice, 1 h and 3 h after infection; survival on 4th day; read-out: CD50 (dosage at which 50% of the animals survive)
# Procedure: as §1
# [7] = test system: Haemophilus influenzae; experiment: as above; details: sc, 96 h; mice infected i.p. with Haemophilus influenzae; s.c. twice, 1 h and 3 h after infection; survival on 4th day; read-out: CD50 (dosage at which 50% of the animals survive)
# Procedure: as §1
# [8] = test system: Streptococcus faecalis; experiment: Activity in vitro: minimum inhibitory concentration; assay type: cell-based; details: Enterococcus faecalis
# [9] = test system: Streptococcus viridans; experiment: as above; assay type: cell-based
# [10] = test system: Staphylococcus epidermis; experiment: as above; assay type: cell-based
# [11] = test system: Proteus mirabilis; experiment: as above; assay type: cell-based
# [12] = test system: Proteus inconstans; experiment: as above; assay type: cell-based; details: Providencia alcalifaciens
# [13] = test system: Pseudomonas aeruginosa; experiment: Activity in vivo: survival of intraperitoneally infected mice; details: sc, 96 h; mice infected i.p. with Pseudomonas aeruginosa; s.c. three times, 1 h, 3 h and 5 h after infection; survival on 4th day; read-out: CD50 (dosage at which 50% of the animals survive)
# Procedure: as §1
# *Administered subcutaneously three times: 1 hour, 3 hours and 5 hours
# [14] = test system: Streptococcus pyogenes; experiment: Activity in vitro: minimum inhibitory concentration; assay type: cell-based
# [15] = test system: Pseudomonas aeruginosa; experiment: as above; assay type: cell-based
# [16] = test system: Escherichia coli; experiment: as above; assay type: cell-based
# [17] = test system: Staphylococcus aureus; experiment: as above; assay type: cell-based
# [18] = test system: Proteus morganii; experiment: as above; assay type: cell-based; details: Morganella morganii
# [19] = Toxicity, LD50; details: in vivo
# [20] = test system: Enterobacter aerogenes; experiment: Activity in vitro: minimum inhibitory concentration; assay type: cell-based; details: Klebsiella aerogenes
# [21] = test system: Streptococcus pneumoniae; experiment: as above; assay type: cell-based
# [22] = test system: Klebsiella pseumoniae; experiment: as above; assay type: cell-based
# [23] = test system: Enterobacter cloacae; experiment: as above; assay type: cell-based
# [24] = test system: Serratia marcescens; experiment: as above; assay type: cell-based
# [25] = mice infected i.p. with Serratia marcescens strain 1, s.c. twice
# [26] = Streptococcus faecalis strain 1
# [27] = Streptococcus faecalis strain 2
# [28] = Streptococcus pyogenes strain 1, read-out: Minimum inhibitory concentration
# [29] = Pseudomonas aeruginosa strain 1
# [30] = Pseudomonas aeruginosa strain 2
# [31] = Pseudomonas aeruginosa strain 3
# [32] = Enterobacter aerogenes strain 1
# [33] = Enterobacter aerogenes strain 2
compound,measurement,setting,value
"CO/N=C(\C(=O)N[C@@H]1C(=O)N2C(C(=O)O)=C(C)CS[C@H]12)c1c[se]c(N)n1 [Product F, (6R, 7R)-7-[2-(2-amino-4-selenazolyl)-2-[(Z)-methoxyimino]-acetamido]-3-methyl-3-oxo-5-thia-1-azabicyclo[4.2.0]oct-2-ene-2-carboxylic acid sodium salt]",MIC,[1]; Citrobacter freundii strain 1,200 µg/mL
same,MIC,[1]; Citrobacter freundii strain 2,1.6 µg/mL
same,MIC,[2],0.1 µg/mL
same,ED50,[3],0.06 mg/kg
same,ED50,[4]; [25],0.59 mg/kg
same,ED50,"[4]; mice infected i.p. with Serratia marcescens strain 2, s.c. twice",5.1 mg/kg
same,ED50,[5],< 0.05 mg/kg
same,ED50,[6],> 25 mg/kg
same,ED50,[7],4 mg/kg
same,MIC,[8]; [26],> 200 µg/mL
same,MIC,[8]; [27],> 200 µg/mL
same,MIC,[9],12.5 µg/mL
same,MIC,[10],100 µg/mL
same,MIC,[11]; Proteus mirabilis strain 3,0.1 µg/mL
same,MIC,[11]; Proteus mirabilis strain 4,0.8 µg/mL
same,MIC,[11]; Proteus mirabilis strain 5,0.4 µg/mL
same,MIC,[12],≤ 0.025 µg/mL
same,ED50,[13],> 200 mg/kg
same,MIC,[14]; [28],3.1 µg/mL
same,MIC,"[14]; Streptococcus pyogenes strain 2, read-out: Minimum inhibitory concentration",0.05 µg/mL
same,MIC,[15]; [29],> 200 µg/mL
same,MIC,[15]; [30],> 200 µg/mL
same,MIC,[15]; [31],200 µg/mL
same,MIC,[16]; Escherichia coli strain 1,0.8 µg/mL
same,MIC,[16]; Escherichia coli strain 2,0.05 µg/mL
same,MIC,[16]; Escherichia coli strain 3,12.5 µg/mL
same,MIC,[16]; Escherichia coli strain 4,100 µg/mL
same,MIC,[16]; Escherichia coli strain 5,3.1 µg/mL
same,MIC,[17]; Staphylococcus aureus strain 1,50 µg/mL
same,MIC,[17]; Staphylococcus aureus strain 2,100 µg/mL
same,MIC,[17]; Staphylococcus aureus strain 3,50 µg/mL
same,MIC,[17]; Staphylococcus aureus strain 4,100 µg/mL
same,MIC,[18],50 µg/mL
same,LD50,[19]; po,> 5000 mg/kg
same,LD50,[19]; sc,> 4000 mg/kg
same,MIC,[20]; [32],0.2 µg/mL
same,MIC,[20]; [33],0.2 µg/mL
same,MIC,[21],12.5 µg/mL
same,MIC,[22]; Klebsiella pseumoniae strain 1,0.2 µg/mL
same,MIC,[22]; Klebsiella pseumoniae strain 2,0.05 µg/mL
same,MIC,[22]; Klebsiella pseumoniae strain 3,0.05 µg/mL
same,MIC,[23]; Enterobacter cloacae strain 1,> 200 µg/mL
same,MIC,[23]; Enterobacter cloacae strain 2,25 µg/mL
same,MIC,[23]; Enterobacter cloacae strain 3,> 200 µg/mL
same,MIC,[24]; Serratia marcescens strain 1,3.1 µg/mL
same,MIC,[24]; Serratia marcescens strain 2,6.3 µg/mL
same,MIC,[24]; Serratia marcescens strain 3,0.4 µg/mL
"CO/N=C(\C(=O)N[C@@H]1C(=O)N2C(C(=O)[O-])=C(CSc3n[nH]c(=O)c(=O)n3C)CS[C@H]12)c1c[se]c(N)n1.[Na+] [Product G, (6R, 7R)-7-[2-(2-amino-4-selenazolyl)-2-[(Z)-methoxyimino]-acetamido]-8-oxo-3-[[(1,4,5,6-tetrahydro-4-methyl-5,6-dioxo-as-triazin-3-yl)thio]methyl]-5-thia-1-azabicyclo[4.2.0]oct-2-ene-2-carboxylic acid sodium salt]",MIC,[1]; Citrobacter freundii strain 1,1.6 µg/mL
same,MIC,[1]; Citrobacter freundii strain 2,0.1 µg/mL
same,MIC,[2],0.05 µg/mL
same,ED50,[3],< 0.003 mg/kg
same,ED50,[4]; [25],0.2 mg/kg
same,ED50,[5],0.02 mg/kg
same,ED50,[6],9.2 mg/kg
same,ED50,[7],0.25 mg/kg
same,MIC,[8]; [26],25 µg/mL
same,MIC,[8]; [27],50 µg/mL
same,MIC,[9],0.8 µg/mL
same,MIC,[10],0.8 µg/mL
same,MIC,[11]; Proteus mirabilis strain 3,0.4 µg/mL
same,MIC,[11]; Proteus mirabilis strain 4,0.025 µg/mL
same,MIC,[11]; Proteus mirabilis strain 5,0.025 µg/mL
same,MIC,[12],0.006 µg/mL
same,ED50,[13],> 200 mg/kg
same,MIC,[14]; [28],0.05 µg/mL
same,MIC,[15]; [29],50 µg/mL
same,MIC,[15]; [30],50 µg/mL
same,MIC,[15]; [31],25 µg/mL
same,MIC,[16]; Escherichia coli strain 1,0.05 µg/mL
same,MIC,[16]; Escherichia coli strain 2,0.012 µg/mL
same,MIC,[16]; Escherichia coli strain 3,0.2 µg/mL
same,MIC,[16]; Escherichia coli strain 4,0.2 µg/mL
same,MIC,[16]; Escherichia coli strain 5,0.2 µg/mL
same,MIC,[17]; Staphylococcus aureus strain 1,0.4 µg/mL
same,MIC,[17]; Staphylococcus aureus strain 2,1.6 µg/mL
same,MIC,[17]; Staphylococcus aureus strain 3,0.8 µg/mL
same,MIC,[17]; Staphylococcus aureus strain 4,0.8 µg/mL
same,MIC,[18],0.05 µg/mL
same,LD50,[19]; po,> 5000 mg/kg
same,LD50,[19]; sc,> 4000 mg/kg
same,MIC,[20]; [32],0.1 µg/mL
same,MIC,[20]; [33],0.1 µg/mL
same,MIC,[21],0.1 µg/mL
same,MIC,[22]; Klebsiella pseumoniae strain 1,0.1 µg/mL
same,MIC,[22]; Klebsiella pseumoniae strain 2,0.025 µg/mL
same,MIC,[22]; Klebsiella pseumoniae strain 3,0.05 µg/mL
same,MIC,[23]; Enterobacter cloacae strain 1,> 100 µg/mL
same,MIC,[23]; Enterobacter cloacae strain 2,0.8 µg/mL
same,MIC,[23]; Enterobacter cloacae strain 3,50 µg/mL
same,MIC,[24]; Serratia marcescens strain 1,0.2 µg/mL
same,MIC,[24]; Serratia marcescens strain 2,0.4 µg/mL
same,MIC,[24]; Serratia marcescens strain 3,0.1 µg/mL
